According to BindingDB's records for doi:10.7270/Q2XP773S (n/a, 1996):

Molecular target: Histamine H2 receptor (Cavia porcellus, UniProt P47747)
Assay: ChEBML_85064
Source text: Histamine H2 receptor antagonistic activity

Histamine H2 receptor, sequence (P47747 whole entry): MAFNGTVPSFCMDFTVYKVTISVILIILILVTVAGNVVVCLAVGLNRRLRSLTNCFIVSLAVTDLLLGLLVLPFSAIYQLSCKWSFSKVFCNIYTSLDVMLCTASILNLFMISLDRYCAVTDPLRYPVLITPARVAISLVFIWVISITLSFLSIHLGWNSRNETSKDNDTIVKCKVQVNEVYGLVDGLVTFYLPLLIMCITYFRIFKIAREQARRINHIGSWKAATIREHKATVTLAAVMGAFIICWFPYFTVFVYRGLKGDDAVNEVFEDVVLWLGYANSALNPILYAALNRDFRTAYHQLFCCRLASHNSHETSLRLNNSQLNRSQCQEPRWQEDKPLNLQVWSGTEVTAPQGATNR

Row | SMILES | IC50 [µM]
1 | COCC/N=c1\c(O)c(O)c1=NC/C=C\COc1csc(CN2CCCCC2)c1 | 1.14
2 | CC(C)/N=c1\c(O)c(O)c1=NC/C=C\COc1csc(CN2CCCCC2)c1 | 1.93

Next, values leading:

Row | IC50 [µM] | SMILES
3 | 1.83 | C/N=c1\c(O)c(O)c1=NC/C=C\COc1csc(CN2CCCCC2)c1
4 | 0.684 | CN(C)Cc1cc(OC/C=C\CN=c2c(O)c(O)c2=N)cs1
5 | 0.809 | CN(C)CC/N=c1\c(O)c(O)c1=NC/C=C\COc1csc(CN2CCCCC2)c1
